US11142515B2, “Pyrazolyl-ureas as kinase inhibitors” (RESPIVERT LIMITED, priority 2014, dated 2021)

What was measured:
[1] = target: T1, p38 MAPKα isoform (MAPK14) (Homo sapiens, UniProt Q16539); test: p38 MAPKα enzyme inhibition (Z-LYTE FRET); type: biochemical; settings: Table 2B, unit inferred; read-out: p38 MAPKα (Enzyme Profile)
T1 construct: purchased Life Technologies
In short: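 Recombinant human MAPK14 (40 ng/mL stock) was preincubated 2 h at RT with compound (stock dilutions 0.0012-40 μg/mL). The Z-LYTE FRET read-out used a MAPKAP-K2-derived peptide, and protease development for 1 h cleaved only non-phosphorylated peptide. Phosphorylation was calculated from the coumarin/fluorescein emission ratio.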

[2] = target: T2, p38MAPKγ (MAPK12) (Homo sapiens, UniProt P53778); test: p38 MAPKγ enzyme inhibition (Z-LYTE FRET); type: biochemical; settings: Table 2B, unit inferred; read-out: p38 MAPKγ (Enzyme Profile)
T2 construct: purchased Life Technologies
T2 sequence (P53778 1-367): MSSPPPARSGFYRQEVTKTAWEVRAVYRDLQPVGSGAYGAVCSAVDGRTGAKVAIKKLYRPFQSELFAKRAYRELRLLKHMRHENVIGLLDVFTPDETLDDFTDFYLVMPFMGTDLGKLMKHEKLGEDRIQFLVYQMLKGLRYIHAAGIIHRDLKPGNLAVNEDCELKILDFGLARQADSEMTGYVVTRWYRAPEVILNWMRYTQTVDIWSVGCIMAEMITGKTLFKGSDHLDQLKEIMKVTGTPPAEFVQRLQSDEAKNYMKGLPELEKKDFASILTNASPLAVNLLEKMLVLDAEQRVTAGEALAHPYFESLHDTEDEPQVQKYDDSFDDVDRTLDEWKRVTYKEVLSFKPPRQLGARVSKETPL
In short: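 Z-LYTE read-out: after 1 h protease development, only non-phosphorylated peptide is cleaved, and the donor/acceptor (coumarin/fluorescein) ratio reports phosphorylation. Beforehand, enzyme and compound (stock concentrations 0.0012–40 μg/mL) were preincubated 2 h at RT, then the kinase reaction ran 1 h at RT with peptide and ATP (8 μM and 400 μM stocks).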

T1 sequence (Q16539 whole entry, canonical isoform): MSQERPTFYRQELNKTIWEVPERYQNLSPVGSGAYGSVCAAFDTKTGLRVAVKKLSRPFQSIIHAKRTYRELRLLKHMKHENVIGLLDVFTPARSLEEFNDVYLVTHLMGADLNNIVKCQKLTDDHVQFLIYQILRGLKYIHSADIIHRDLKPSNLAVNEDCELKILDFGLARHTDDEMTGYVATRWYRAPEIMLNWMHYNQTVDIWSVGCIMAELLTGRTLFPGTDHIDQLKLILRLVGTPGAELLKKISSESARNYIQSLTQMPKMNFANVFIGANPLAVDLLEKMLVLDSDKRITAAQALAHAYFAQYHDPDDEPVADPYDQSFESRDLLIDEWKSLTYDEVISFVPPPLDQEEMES

SMILES	IC50 [1] [nM]	IC50 [2] [nM]
Cc1ncc(Nc2cc(COc3ccc(NC(=O)Nc4cc(C(C)(C)C)nn4-c4cccc(F)c4)c4ccccc34)ccn2)nc1C [Example 169, 1-(3-(tert-butyl)-1-(3-fluorophenyl)-1H-pyrazol-5-yl)-3-(4-((2-((5,6-dimethylpyrazin-2-yl)amino)pyridin-4-yl)methoxy)naphthalen-1-yl)urea]	26	449
CCc1cncc(Nc2cc(COc3ccc(NC(=O)Nc4cc(C(C)(C)C)nn4-c4ccc(OC)nc4)c4ccccc34)ccn2)n1 [Example 63]	25	312
CCc1cncc(Nc2cc(COc3ccc(NC(=O)Nc4cc(C(C)(C)C)nn4-c4cccc(C)c4)c4ccccc34)ccn2)n1 [Example 141, 1-(3-(tert-butyl)-1-(m-tolyl)-1H-pyrazol-5-yl)-3-(4-((2-((6-ethylpyrazin-2-yl)amino)pyridin-4-yl)methoxy)naphthalen-1-yl)urea]	18	438
COc1cc(C)cc(-n2nc(C(C)(C)C)cc2NC(=O)Nc2ccc(OCc3ccnc(Nc4cnc(C(=O)N5CCCC5)cn4)c3)c3ccccc23)c1 [Example 227, 1-(3-(tert-butyl)-1-(3-methoxy-5-methylphenyl)-1H-pyrazol-5-yl)-3-(4-((2-((5-(pyrrolidine-1-carbonyl)pyrazin-2-yl)amino)pyridin-4-yl)methoxy)naphthalen-1-yl)urea]	43	> 13800
COCCOc1ccc(-n2nc(C(C)(C)C)cc2NC(=O)Nc2ccc(OCc3ccnc(Nc4cnccn4)c3)c3ccccc23)cc1C [Example 157, 1-(3-(tert-butyl)-1-(4-(2-methoxyethoxy)-3-methyl-phenyl)-1H-pyrazol-5-yl)-3-(4-((2-(pyrazin-2-ylamino)pyridin-4-yl)methoxy)naphthalen-1-yl) urea]	23	> 14900
CCc1cncc(Nc2cc(COc3ccc(NC(=O)Nc4cc(C(C)(C)C)nn4-c4cc(C)cc(C)c4)c4ccccc34)ccn2)n1 [Example 212, 1-(3-(tert-butyl)-1-(3,5-dimethylphenyl)-1H-pyrazol-5-yl)-3-(4-((2-((6-ethyl-pyrazin-2-yl)amino)pyridin-4-yl)methoxy)naphthalen-1-yl)urea]	89	> 15600
CCNC(=O)c1cnc(Nc2cc(COc3ccc(NC(=O)Nc4cc(C(C)(C)C)nn4-c4ccc(C)cc4)c4ccccc34)ccn2)cn1 [Example 191, 5-((4-(((4-(3-(3-(tert-butyl)-1-(p-tolyl)-1H-pyrazol-5-yl)ureido)naphthalen-1-yl)oxy)methyl)pyridin-2-yl)amino)-N-ethylpyrazine-2-carboxamide]	47	460
COCCNC(=O)c1cnc(Nc2cc(COc3ccc(NC(=O)Nc4cc(C(C)(C)C)nn4-c4ccc(C)c(C)c4)c4ccccc34)ccn2)cn1 [Example 156]	21	495
Cc1ccc(-n2nc(C(C)(C)C)cc2NC(=O)Nc2ccc(OCc3ccnc(Nc4cnc(C)c(C)n4)c3)c3ccccc23)cc1C [Example 146, 1-(3-(tert-butyl)-1-(3,4-dimethylphenyl)-1H-pyrazol-5-yl)-3-(4-((2-((5,6-dimethylpyrazin-2-yl)amino)pyridin-4-yl)methoxy)naphthalen-1-yl)urea]	69	1550
Cc1ccc(-n2nc(C(C)(C)C)cc2NC(=O)Nc2ccc(OCc3ccnc(Nc4cnc(C(=O)NCCOC(C)(C)C)cn4)c3)c3ccccc23)cc1 [Example 125, N-(2-(tert-butoxy)ethyl)-5-((4-(((4-(3-(3-(tert-butyl)-1-(p-tolyl)-1H-pyrazol-5-yl)ureido)naphthalen-1-yl)oxy)methyl)pyridin-2-yl)amino)pyrazine-2-carboxamide]	302	> 13500
Cc1ccc(-n2nc(C(C)(C)C)cc2NC(=O)Nc2ccc(OCc3ccnc(Nc4cncc(N(C)C)n4)c3)c3ccccc23)s1 [Example 111, 1-(3-(tert-butyl)-1-(5-methylthiophen-2-yl)-1H-pyrazol-5-yl)-3-(4-((2-((6-(dimethylamino)pyrazin-2-yl)amino)pyridin-4-yl)methoxy)naphthalen-1-yl)urea]	33	125
CCCNC(=O)c1cnc(Nc2cc(COc3ccc(NC(=O)Nc4cc(C(C)(C)C)nn4-c4ccc(C)cc4)c4ccccc34)ccn2)cn1 [Example 192, 5-((4-(((4-(3-(3-(tert-butyl)-1-(p-tolyl)-1H-pyrazol-5-yl)ureido)naphthalen-1-yl)oxy)methyl)pyridin-2-yl)amino)-N-propylpyrazine-2-carboxamide]	46	> 14600
COCc1ccc(-n2nc(C(C)(C)C)cc2NC(=O)Nc2ccc(OCc3ccnc(Nc4cnc(C(=O)N5CCCC5)cn4)c3)c3ccccc23)cc1 [Example 217, 1-(3-(tert-butyl)-1-(4-(methoxymethyl)phenyl)-1H-pyrazol-5-yl)-3-(4-((2-((5-(pyrrolidine-1-carbonyl)pyrazin-2-yl)amino)pyridin-4-yl)methoxy)naphthalen-1-yl)urea]	17	424
Cc1cccc(-n2nc(C(C)(C)C)cc2NC(=O)Nc2ccc(OCc3ccnc(Nc4cnc(C)c(C)n4)c3)c3ccccc23)c1 [Example 58]	18	435
Cc1ccc(-n2nc(C(C)(C)C)cc2NC(=O)Nc2ccc(OCc3ccnc(Nc4cncc(OCCO)n4)c3)c3ccccc23)cc1 [Example 121, 1-(3-(tert-butyl)-1-(p-tolyl)-1H-pyrazol-5-yl)-3-(4-((2-((6-(2-hydroxyethoxy)pyrazin-2-yl)amino)pyridin-4-yl)methoxy)naphthalen-1-yl)urea]	38	79

Now those with a lower IC50 [1], led by results:

IC50 [1] [nM]	IC50 [2] [nM]	SMILES
15	151	Cc1ccc(-n2nc(C(C)(C)C)cc2NC(=O)Nc2ccc(OCc3ccnc(Nc4cncc(N5CCCC5)n4)c3)c3ccccc23)cc1 [Example 55, 1-(3-(tert-Butyl)-1-(p-tolyl)-1H-pyrazol-5-yl)-3-(4-((2-((6-(pyrrolidin-1-yl)pyrazin-2-yl)amino)pyridin-4-yl)methoxy)naphthalen-1-yl)urea]
< 0.47	2040	CN(C)Cc1ccc(-n2nc(C(C)(C)C)cc2NC(=O)Nc2ccc(OCc3ccnc(Nc4cnccn4)c3)c3ccccc23)cc1 [Example 267, 1-(3-(tert-butyl)-1-(4-((dimethylamino)methyl)phenyl)-1H-pyrazol-5-yl)-3-(4-((2-(pyrazin-2-ylamino)pyridin-4-yl)methoxy)naphthalen-1-yl)urea]
11	118	Cc1ccc(-n2nc(C(C)(C)C)cc2NC(=O)Nc2ccc(OCc3ccnc(Nc4cnc(C(=O)NCCC(C)(C)O)cn4)c3)c3ccccc23)cc1 [Example 72]
7.3	10200	COc1ccc(-n2nc(C(C)(C)C)cc2NC(=O)Nc2ccc(OCc3ccnc(Nc4cnc(CO)cn4)c3)c3ccccc23)cc1C [Example 133, 1-(3-(tert-butyl)-1-(4-methoxy-3-methylphenyl)-1H-pyrazol-5-yl)-3-(4-((2-((5-(hydroxymethyl)pyrazin-2-yl)amino)pyridin-4-yl)methoxy)naphthalen-1-yl) urea]
< 0.4	101	Cc1ccc(-n2nc(C(C)(C)C)cc2NC(=O)Nc2ccc(OCc3ccnc(Nc4cnc(C(=O)NCCN5CCCCC5)cn4)c3)c3ccccc23)cc1 [Example 79]
14	> 15900	CC(C)c1cccc(-n2nc(C(C)(C)C)cc2NC(=O)Nc2ccc(OCc3ccnc(Nc4cnccn4)c3)c3ccccc23)c1 [Example 131, 1-(3-(tert-butyl)-1-(3-isopropylphenyl)-1H-pyrazol-5-yl)-3-(4-((2-(pyrazin-2-ylamino)pyridin-4-yl)methoxy)naphthalen-1-yl) urea]
11	> 13700	COc1cc(F)cc(-n2nc(C(C)(C)C)cc2NC(=O)Nc2ccc(OCc3ccnc(Nc4cnc(C(=O)N5CCCC5)cn4)c3)c3ccccc23)c1 [Example 250, 1-(3-(tert-butyl)-1-(3-fluoro-5-methoxyphenyl)-1H-pyrazol-5-yl)-3-(4-((2-((5-(pyrrolidine-1-carbonyl)pyrazin-2-yl)amino)pyridin-4-yl)methoxy)naphthalen-1-yl)urea]
8	106	Cc1cccc(-n2nc(C(C)(C)C)cc2NC(=O)Nc2ccc(OCc3ccnc(Nc4cnc(C(=O)N5CC[C@@H](O)C5)cn4)c3)c3ccccc23)c1 [Example 69]
13	1240	CO[C@H]1CCN(C(=O)c2cnc(Nc3cc(COc4ccc(NC(=O)Nc5cc(C(C)(C)C)nn5-c5cccc(C)c5)c5ccccc45)ccn3)cn2)C1 [Example 200, (S)-1-(3-(tert-butyl)-1-(m-tolyl)-1H-pyrazol-5-yl)-3-(4-((2-((5-(3-methoxy-pyrrolidine-1-carbonyl)pyrazin-2-yl)amino)pyridin-4-yl)methoxy)naphthalen-1-yl)urea]
